Results: article PMC9486936 (ACS Chemical Biology, 2022)

Test system: NocG
Assay: LC-HRMS, formation of beta-ketoacid […]
Assay type: biochemical, Nodularia sp. LEGE 06071
Conditions: read-out: apparent Km; variable hexanoyl-SNAC with octanoyl-SNAC as co-substrate

Km: 135 ± 29 µM
SMILES: CCCCCC(=O)SCCNC(C)=O [hexanoyl-SNAC]
